Measured values from patent publication US20260124167A1, “SIRTUIN ACTIVATOR OR EXPRESSION ENHANCER, NAD+ INCREASING AGENT, AND SENESCENT CELL INHIBITOR” (WAKUNAGA PHARMACEUTICAL CO., LTD., priority 2022, published 2026).

How the values were obtained:
SIRT1 protein [1] = test: SIRT1 protein amount-increasing effect in liver and heart (in vivo); design: species or system mice; conditions: animals prepared as in (12) (SAMR1, SAMP8), repeated oral administration for two weeks; FIG. 13
p21 gene = test: Suppression of senescent cell marker p21 gene expression in the kidney (in vivo); conditions: SAMP8 mice, repeated oral administration for two weeks, real-time PCR; FIG. 7
Protocol: (§1) (a) About 5 mg of S-1-propenylcysteine (cis/trans mixture) produced in Preparation Example 2 was weighed precisely, and dissolved in 10 mL of purified water to prepare an administration liquid. (b) About 6 mg of S-1-propenylcysteine (cis/trans mixture) produced in Preparation Example 2 was weighed precisely and dissolved in 1 mL of culture liquid. The liquid was used as a stock solution, diluted appropriately, and subjected to an in vitro test.
(§2) Animals for evaluating the biological activity were bred as follows. Senescence-accelerated mice SAMP8 (male) for testing were purchased from Japan SLC, Inc. After purchase, the animals were acclimatized for one week and used as animals for the evaluation tests.
(§3) After repeated oral administration of the sample prepared in the above (1) (a) to the animals for the evaluation tests in the above (2) for two weeks, kidneys of such animals were excised. The kidneys were crushed using an automatic tissue crusher, and then RNA was extracted using a TRIzol solution manufactured by Thermo Fisher Scientific K.K. CDNA was synthesized using PRIMEScript RT reagent Kit with gEraser manufactured by Takara. The synthesized cDNA was subjected to real-time PCR using KAPA SYBR Fast qPCR kit manufactured by Nippon Genetics Co., Ltd. The results are shown in FIG. 7. […]

SIRT1 gene = test: Enhancement of SIRT1 gene expression in kidney (in vivo), real-time PCR; conditions: SAMP8 mice, repeated oral administration for two weeks, FIG. 6
Protocol: as §1, §2
After repeated oral administration of the sample prepared in the above (1) (a) to the animals for the evaluation tests in the above (2) for two weeks, kidneys of such animals were excised. The kidneys were crushed using an automatic tissue crusher, and then RNA was extracted using a TRIzol solution manufactured by Thermo Fisher Scientific K.K. CDNA was synthesized using PRIMEScript RT reagent Kit with gEraser manufactured by Takara. The synthesized CDNA was subjected to real-time PCR using KAPA SYBR Fast qPCR kit manufactured by Nippon Genetics Co., Ltd. The results are shown in FIG. 6. S-1-propenylcysteine increased the SIRT1 expression in the mouse kidney.

KIM-1 = test: Inhibitory action on kidney injuries (in vivo), KIM-1 Western Blotting; conditions: SAMP8 mice, repeated oral administration for two weeks, FIG. 8
Protocol: as §1, §2
(§4) After repeated oral administration of the sample prepared in the above (1) (a) to the animals for the evaluation tests in the above (2) for two weeks, kidneys of such animals were excised. After the kidneys were crushed using an automatic tissue crusher, the cells were lysed with an RIPA cell lysis buffer manufactured by Millipore Corporation which was diluted 10-fold with purified water added with a protease inhibitor and a phosphatase inhibitor manufactured by Roche and then centrifuged (10,000 rpm, 10 min, 4° C.), and the supernatant was used as a cell extract. The cell extract was used for analysis by Western Blotting according to a conventional method. […]

NAD^+ [2] = test: NAD+ amount increasing action (in vivo), NAD+/NADH Assay Kit; conditions: SAMP8 mice, single oral dose (180 minutes later) and mixed with food for one month; FIG. 4
Protocol: as §1, §2
A single dose of the sample prepared in (1) (a) was orally administered to animals for the evaluation tests in the above (2), and then cerebral cortices of such animals were excised 180 minutes later. In addition, the sample prepared in the above (1) (a) was mixed with food and fed to animals for the evaluation tests in the above (2) for one month, and then cerebral cortices of such animals were excised. The NAD^+ amount in the cerebral cortices was measured using NAD^+/NADH Assay Kit manufactured by Dojindo Laboratories. S-1-propenylcysteine increased NAD^+ amount.

NAD^+ [3] = test: NAD+ amount increasing action in kidney, skeletal muscle, and liver (in vivo); conditions: SAMP8 mice, single oral dose, 60 minutes later; FIG. 10
Protocol: as §1, §2
A single dose of the sample prepared in the above (1) (a) was orally administrated to animals for the evaluation tests in the above (2), and then cerebral cortexes, livers, kidneys, and skeletal muscles of such animals were extracted 60 minutes later. The NAD^+ amounts in the cerebral cortexes, livers, kidneys, and skeletal muscles were measured using NAD^+/NADH Assay Kit manufactured by Dojindo Laboratories. S-1-propenylcysteine increased the NAD^+ amount.

[4] = test system: Senescence-accelerated mice SAMP8; test: Cognitive/memory retention action (in vivo), passive avoidance test; conditions: mixed with food for four months, holding trial after two months, FIG. 9
Protocol: as §1, §2
The sample prepared in the above (1) (a) was mixed with food and fed to animals for evaluation test in the above (2) for four months, and then a passive avoidance test was performed. The passive avoidance test is a test utilizing a habit that a mouse prefers a dark place, and on Day 1, a mouse already in a bright room was moved to a dark room while receiving an electrical shock (50 V/1 second), and the time it took for the mouse to enter the dark room was taken as response latency of an acquisition trial. After two months, the mouse was put in the bright room again and the time it took to move to the dark room (the response latency of a holding trial) was used as an index of memory.

SIRT1 protein [5] = test: SIRT1 protein increasing action (in vivo), hippocampus, Western Blotting; conditions: SAMP8 mice, repeated oral administration for two weeks; FIG. 3
Protocol: as §1, §2
as §4, with “to” for “to the”, “weeks, hippocampi” for “weeks, kidneys”, “the hippocampi” for “the kidneys”, “with a” for “with an”, “with combined protease/phosphatase inhibitors” for “with a protease inhibitor and a phosphatase inhibitor”, “by Thermo Fisher Scientific K.K.,” for “by Roche”

SIRT1 protein [6] = test: SIRT1 protein increasing action in hypothalamus (in vivo); conditions: SAMP8 mice fed diet mixed with sample (0.001% liquid) for 10 months; FIG. 12
Protocol: S-1-propenylcysteine (cis/trans mixture) produced in Preparation Example 2 was dissolved at a concentration of 0.001% in purified water to prepare an administration liquid. Animals for evaluating the biological activity were bred as follows. Senescence-accelerated mice SAMR1 (male) and SAMP8 (male) for testing were purchased from Japan SLC, Inc. After purchase, the animals were acclimatized for one week and used as animals for the evaluation tests. These animals for the evaluation tests were fed with regular diet and SAMP8 were fed with the diet mixed with the sample prepared above for 10 months, and then hypothalamuses of such animals were excised. After the hypothalamuses were crushed using an automatic tissue crusher, the cells were lysed with a RIPA cell lysis buffer manufactured by Millipore Corporation which was diluted 10-fold with purified water added with combined protease/phosphatase inhibitors manufactured by Thermo Fisher Scientific K.K., and then centrifuged (10,000 rpm, 10 min, 4° C.), and the supernatant was used as a cell extract. The cell extract was used for analysis by Western Blotting according to a conventional method. An anti-SIRT1 antibody (manufactured by Biolegend) and an anti-β-actin antibody (manufactured by Fujifilm Wako Pure Chemical Corporation) were used as antibodies. S-1-propenylcysteine increased the SIRT1 protein mass.

SIRT1 protein [7] = test: SIRT1 protein increasing action in cerebral cortex, hippocampus, heart, lung, liver, kidney, and skeletal muscle (in vivo); conditions: SAMP8 mice, about 10 mg in 10 mL liquid, repeated oral administration for two weeks; FIG. 11
Protocol: as §2
About 10 mg of S-1-propenylcysteine (cis/trans mixture) produced in Preparation Example 2 was weighed precisely, and dissolved in 10 mL of purified water to prepare an administration liquid. After repeated oral administration of the prepared sample to animals for the evaluation tests in the above (2) for two weeks, cerebral cortexes, hippocampi, hearts, lungs, livers, kidneys, and skeletal muscles of such animals were excised. After the cerebral cortexes, hippocampi, hearts, lungs, livers, kidneys, and skeletal muscles were crushed using an automatic tissue crusher, the cells were lysed with a RIPA cell lysis buffer manufactured by Millipore Corporation which was diluted 10-fold with purified water added with combined protease/phosphatase inhibitors manufactured by Thermo Fisher Scientific K.K., and then centrifuged (10,000 rpm, 10 min, 4° C.), and the supernatant was used as a cell extract. The cell extract was used for analysis by Western Blotting according to a conventional method. […]

lipocalin-2 (NGAL) = test: Inhibitory action on kidney injuries (in vivo), NGAL Western Blotting; conditions: SAMP8 mice, repeated oral administration for two weeks, FIG. 8
Protocol: as §1, §2, §4

p16 gene = test: Suppression of senescent cell marker p16 gene expression in the kidney (in vivo); conditions: SAMP8 mice, repeated oral administration for two weeks, real-time PCR; FIG. 7
Protocol: as §1, §2, §3

SIRT1 = molecular target: T1, SIRT1 (Mus musculus, UniProt Q923E4); test: SIRT1 activation action (in vivo), cerebral cortex lysate, SIRT1_GLO kit; conditions: SAMP8 mice, single oral dose, 180 minutes after administration; FIG. 2
T1 construct: from tissue; host or cells: cerebral cortex of SAMP8 mice
T1 sequence (Q923E4 1-737): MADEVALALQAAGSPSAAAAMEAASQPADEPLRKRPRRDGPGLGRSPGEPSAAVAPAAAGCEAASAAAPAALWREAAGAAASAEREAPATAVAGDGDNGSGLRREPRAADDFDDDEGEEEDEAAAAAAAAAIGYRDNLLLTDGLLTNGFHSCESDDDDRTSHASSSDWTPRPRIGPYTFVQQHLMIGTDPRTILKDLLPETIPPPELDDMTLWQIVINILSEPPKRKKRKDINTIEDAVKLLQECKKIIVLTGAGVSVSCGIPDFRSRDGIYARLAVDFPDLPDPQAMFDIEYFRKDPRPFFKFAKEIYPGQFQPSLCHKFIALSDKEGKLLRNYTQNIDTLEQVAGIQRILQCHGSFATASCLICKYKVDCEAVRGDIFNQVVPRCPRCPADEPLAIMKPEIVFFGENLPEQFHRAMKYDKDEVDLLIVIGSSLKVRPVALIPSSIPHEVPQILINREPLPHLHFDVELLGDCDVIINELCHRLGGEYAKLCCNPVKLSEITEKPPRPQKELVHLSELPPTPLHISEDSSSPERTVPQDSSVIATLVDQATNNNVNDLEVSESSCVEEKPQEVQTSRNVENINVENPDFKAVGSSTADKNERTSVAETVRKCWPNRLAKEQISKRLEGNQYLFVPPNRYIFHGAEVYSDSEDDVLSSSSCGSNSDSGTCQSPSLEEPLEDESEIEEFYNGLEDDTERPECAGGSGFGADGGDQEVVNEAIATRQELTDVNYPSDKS
Protocol: as §1, §2
A SIRT1_GLO kit manufactured by Promega Corporation was purchased to measure the sirtuins activity. A lysate of the cerebral cortex was placed in a 96-well plate, various reaction reagents were added, and then luminous intensity of luciferase was measured by a plate reader.
A single dose of the sample prepared in the above (1) (a) was orally administrated to animals for the evaluation tests in the above (2), and then cerebral cortices of such animals were extracted 15, 30, 60, and 180 minutes later. […] Centrifugation was performed and the sirtuins activity in the supernatant thereof was measured. […]

p53 protein = test: Suppression of cellular senescence marker p53 protein in the hippocampus (in vivo); conditions: SAMP8 mice, repeated oral administration for six weeks; FIG. 5
Protocol: as §1, §2
as §4, with “to” for “to the”, “for six” for “for two”, “weeks, hippocampi” for “weeks, kidneys”, “the hippocampi” for “the kidneys”, “with a” for “with an”, “by Roche,” for “by Roche”

## CC=CSC[C@H](N)C(=O)O [S-1-propenylcysteine]
SIRT1 protein [1]
  SIRT1 protein mass in livers and hearts: increased
p21 gene
  cells expressing p21 gene in the kidneys: reduced
SIRT1 gene
  SIRT1 expression in kidney: increased
KIM-1
  KIM-1 (marker of kidney injuries) in kidney: reduced
NAD^+ [2]
  NAD^+ amount in cerebral cortices: increased
NAD^+ [3]
  NAD^+ amount in cerebral cortexes, livers, kidneys, and skeletal muscles: increased
[4]
  cognitive and memory functions (response latency, passive avoidance test): ameliorated aging-related decline in cognitive and memory functions
SIRT1 protein [5]
  SIRT1 protein mass in hippocampus: increased
SIRT1 protein [6]
  SIRT1 protein mass in hypothalamus: increased
SIRT1 protein [7]
  SIRT1 protein mass in cerebral cortexes, hippocampi, hearts, lungs, livers, kidneys, and skeletal muscles: increased
lipocalin-2 (NGAL)
  NGAL (marker of kidney injuries) in kidney: reduced
p16 gene
  cells expressing p16 gene in the kidneys: reduced
SIRT1
  sirtuin activity in cerebral cortex: increased
p53 protein
  p53 protein mass in hippocampus: reduced
